Where a name gives a salt, the structure may show the parent alone.
Key:
[1] = molecular target: T1, DPP-IV obtained from pig kidney (Sus scrofa, UniProt P22411); assay: Measurement of DPPIV-inhibiting activity (in vitro experiment); format: biochemical; conditions: DPP-IV from pig kidney 10 mU/mL, substrate Gly-Pro-p-nitroanilide 0.33 mM, 20 min preincubation, 20 min reaction, absorbance 405 nm
T1 construct: DPP-IV obtained from pig kidney; from tissue; host or cells: pig kidney
Description: DPP-IV obtained from pig kidney was dissolved in a reaction buffer (50 mM Tris-HCl pH7.4, 0.1% BSA) at 10 mU/mL, and 110 μL of this was used. 15 μL of the drug obtained from the aforementioned Examples was added, and this was incubated at room temperature for 20 minutes, and then 25 μL of a 2 mM solution of Gly-Pro-p-nitroanilide (final concentration 0.33 mM) was added to start the enzymatic reaction. The reaction time was 20 minutes, and 1 N phosphoric acid solution (25 μL) was added to stop the reaction.

[2] = test system: normal mice (male C57BL/6N); assay: Effects on glucose tolerance in normal mice (in vivo experiment); conditions: 1 mg/kg oral, 30 min before oral glucose 2 g/kg; blood glucose AUC0-120; 0.5% MC group = 100%, NVP DPP728 (10 mg/kg) group = 0%; lower = better
Description: Animals: Male C57BL/6N mice (purchased from Japan Charles River) The test compounds were suspended in a 0.5% methylcellulose (MC) solution at the doses indicated below in Table 2. These test compounds and the NVP DPP728 (U.S. Pat. No. 6,011,155) suspension, or the 0.5% MC solution (the solvent control group), were administered orally at a dose of 10 mL/kg. 30 minutes later, a glucose solution was orally administered at a dose of 10 mL/kg. Glucose was orally administered at a dose of 2 g/kg. The tail vain of unanesthetized mice was cut with a razor blade to cause a small amount of bleeding immediately before administering the test substances or NVP DPP728, and immediately before, as well as 30, 60, and 120 minutes after, administration of the glucose solution. 10 μL of blood was collected, and this was mixed immediately with 0.6 M perchloric acid (140 μL). Glucose present in the supernatant obtained by centrifugation (1500 g, 10 minutes, 4° C., refrigerated centrifuge GS-6KR, Beckman) was measured using Glucose CII Test Wako (Wako Pure Chemicals). Results: In each of the groups to which 0.5% MC solution, NVP DPP728, and the test compounds were administered, the area under the curve of blood glucose vs. time was calculated over 0 to 120 minutes from the time of glucose administration (AUC0-120). Defining the AUC0-120 for the 0.5% MC solution-administered group as 100%, and the AUC0-120 for the NVP DPP728 (10 mg/kg)-administered group as 0%, the degree of improvement in glucose tolerance due to the test compound was calculated by the following equation: Degree of improvement in glucose tolerance (%)=(AUC0-120 of the test compound−AUC0-120 of the NVP DPP728 (10 mg/kg)-administered group)/(AUC0-120 of the 0.5% MC solution-administered group−AUC0-120 of the NVP DPP728 (10 mg/kg)-administered group)×100 The lower the % value, the better the degree of improvement in glucose tolerance.

T1 sequence (P22411 whole entry): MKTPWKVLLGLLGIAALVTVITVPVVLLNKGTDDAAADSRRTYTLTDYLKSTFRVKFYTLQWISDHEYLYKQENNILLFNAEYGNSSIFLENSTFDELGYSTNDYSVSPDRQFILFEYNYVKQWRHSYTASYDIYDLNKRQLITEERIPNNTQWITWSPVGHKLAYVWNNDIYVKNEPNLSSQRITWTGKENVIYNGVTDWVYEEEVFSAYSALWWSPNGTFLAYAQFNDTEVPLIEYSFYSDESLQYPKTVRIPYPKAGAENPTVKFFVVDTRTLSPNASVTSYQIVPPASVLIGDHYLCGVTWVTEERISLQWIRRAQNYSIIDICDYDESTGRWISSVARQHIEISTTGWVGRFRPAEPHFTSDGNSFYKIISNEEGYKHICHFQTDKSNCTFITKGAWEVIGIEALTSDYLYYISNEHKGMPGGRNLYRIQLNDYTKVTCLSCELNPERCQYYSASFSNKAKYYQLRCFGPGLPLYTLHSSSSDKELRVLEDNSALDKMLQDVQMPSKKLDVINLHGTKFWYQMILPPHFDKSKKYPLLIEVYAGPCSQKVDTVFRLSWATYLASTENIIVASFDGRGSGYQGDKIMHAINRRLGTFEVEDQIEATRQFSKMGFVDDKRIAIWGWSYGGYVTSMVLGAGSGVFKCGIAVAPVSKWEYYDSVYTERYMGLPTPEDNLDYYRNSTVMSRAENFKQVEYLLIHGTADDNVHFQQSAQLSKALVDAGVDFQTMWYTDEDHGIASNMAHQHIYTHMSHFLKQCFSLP

| Structure (SMILES) | IC50 [1] [µM] | Degree of improvement in glucose tolerance (%) [2] [%] |
| --- | --- | --- |
| CC#CCn1c(=O)n(C)c2nc(OC)nc(N3CCNCC3)c21.O=C(O)C(F)(F)F [Example 1, 7-(2-Butynyl)-2-methoxy-9-methyl-6-(piperazin-1-yl)-7,9-dihydropurin-8-one trifluoroacetic acid salt] | 0.24 | 19.8 |
| CC#CCn1c(=O)n(-c2ccoc2)c2nc(OC)nc(N3CCNCC3)c21.O=C(O)C(F)(F)F [Example 56, 7-(2-Butynyl)-9-(furan-3-yl)-2-methoxy-6-(piperazin-1-yl)-7,9-dihydropurin-8-one trifluoroacetic acid salt] | 0.0964 | 11.3 |
| CC#CCn1c(=O)n(CCc2ccccc2)c2nc(Cl)nc(N3CCNCC3)c21 [Example 34, 7-(2-Butynyl)-2-chloro-9-(2-phenylethyl)-6-(piperazin-1-yl)-7,9-dihydropurin-8-one trifluoroacetic acid salt] | 0.0148 | – |
| Cn1c(=O)n(Cc2ccccc2)c2c(N3CCNCC3)nc(Cl)nc21 [Example 21, 7-Benzyl-2-chloro-9-methyl-6-(piperazin-1-yl)-7,9-dihydropurin-8-one trifluoroacetic acid salt] | 2.45 | – |
| C=Cc1ccc(-n2c(=O)n(CC#CC)c3c(N4CCNCC4)nc(OC)nc32)cc1 [Example 58, 7-(2-Butynyl)-2-methoxy-6-(piperazin-1-yl)-9-(4-vinyl-phenyl)-7,9-dihydropurin-8-one trifluoroacetic acid salt] | 0.0156 | – |
| CC#CCn1c(=O)n(-c2ccc(C#N)cc2)c2nc(Cl)nc(N3CCNCC3)c21 [Example 42, 4-[7-(2-Butynyl)-2-chloro-8-oxo-6-(piperazin-1-yl)-7,8-dihydropurin-9-yl]benzonitrile trifluoroacetic acid salt] | 0.0425 | – |
| CC#CCn1c(=O)n(C)c2c(Oc3ccccc3C(N)=O)cnc(N3CCNCC3)c21 [Example 83, 2-[3-(2-Butynyl)-1-methyl-2-oxo-4-piperazin-1-yl-2,3-dihydro-1H-imidazo[4.5-c]pyridin-7-yloxy]-benzamide trifluoroacetic acid salt] | 1.13 | – |
| CC#CCn1c(=O)n(-c2cccnc2)c2nc(OC)nc(N3CCNCC3)c21 [Example 55, 7-(2-Butynyl)-2-methoxy-6-(piperazin-1-yl)-9-(pyridin-3-yl)-7,9-dihydropurin-8-one trifluoroacetic acid salt] | 0.0372 | – |
| CC#CCn1c(=O)[nH]c2nc(OC)nc(N3CCNCC3)c21 [Example 53, 7-(2-Butynyl)-2-methoxy-6-(piperazin-1-yl)-7,9-dihydropurin-8-one trifluoroacetic acid salt] | 1.37 | – |
| CC#CCn1c(=O)n(CCCC#N)c2nc(Cl)nc(N3CCNCC3)c21 [Example 37, 4-[7-(2-Butynyl)-2-chloro-8-oxo-6-(piperazin-1-yl)-7,8-dihydropurin-9-yl]butyronitrile trifluoroacetic acid] | 0.149 | – |
| N#Cc1ccccc1Cn1c(=O)n(Cc2ccccc2)c2c(N3CCNCC3)nccc21 [Example 80, 2-(3-Benzyl-2-oxo-4-piperazin-1-yl-2,3-dihydroimidazo[4.5-c]pyridin-1-ylmethyl)benzonitrile] | 3.01 | – |
| CC#CCn1c(=O)n(CCc2ccccc2)c2ncnc(N3CCNCC3)c21 [Example 74, 7-(2-Butynyl)-9-phenethyl-6-(piperazin-1-yl)-7,9-dihydropurin-8-one trifluoroacetic acid salt] | 0.014 | – |
| CC#CCn1c(=O)n(C)c2nc(Cl)nc(N3CCCC(N)C3)c21 (stereo not shown) [Example 27, 6-(3-Amino-piperidin-1-yl)-7-(2-butynyl)-2-chloro-9-methyl-7,9-dihydropurin-8-one trifluoroacetic acid salt] | 3.14 | – |
| CC#CCn1c(=O)n(CC2CC2)c2nc(Cl)nc(N3CCNCC3)c21 [Example 38, 7-(2-Butynyl)-2-chloro-9-cyclopropylmethyl-6-(piperazin-1-yl)-7,9-dihydropurin-8-one trifluoroacetic acid salt] | 0.15 | – |
| C=CCn1c(=O)n(CC#CC)c2c(N3CCNCC3)nc(Oc3ccccc3C(N)=O)nc21 [Example 60, 2-[9-Allyl-7-(2-butynyl)-8-oxo-6-(piperazin-1-yl)-8,9-dihydro-7H-purin-2-yloxy]benzamide trifluoroacetic acid salt] | 0.119 | – |
| CC#CCn1c(=O)n(CC(N)=O)c2ncnc(N3CCNCC3)c21 [Example 71, 2-[7-(2-Butynyl)-8-oxo-6-(piperazin-1-yl)-7,8-dihydropurin-9-yl]acetamide trifluoroacetic acid salt] | 0.26 | – |
| CC#CCn1c(=O)n(C)c2nc(SC)nc(N3CCNCC3)c21 [Example 9, 7-(2-Butynyl)-2-methylsulfanyl-9-methyl-6-(piperazin-1-yl)-7,9-dihydropurin-8-one trifluoroacetic acid salt] | 0.214 | – |
| CC#CCn1c(=O)n(Cc2ccccc2C(N)=O)c2nc(Cl)nc(N3CCNCC3)c21 [Example 39, 2-[7-(2-Butynyl)-2-chloro-8-oxo-6-(piperazin-1-yl)-7,8-dihydropurin-9-ylmethyl]benzamide trifluoroacetic acid salt] | 0.0323 | – |
| CC#CCn1c(=O)n(CCC)c2nc(Cl)nc(N3CCNCC3)c21 [Example 30, 7-(2-Butynyl)-2-chloro-6-(piperazin-1-yl)-9-propyl-7,9-dihydropurin-8-one trifluoroacetic acid salt] | 0.132 | – |
| CC#CCn1c(=O)n(C)c2nc(O)nc(N3CCNCC3)c21 [Example 8, 7-(2-Butynyl)-2-hydroxy-9-methyl-6-(piperazin-1-yl)-7,9-dihydropurin-8-one trifluoroacetic acid salt] | 1.16 | – |
| CC#CCn1c(=O)n(Cc2ccc(C#N)cc2)c2nc(OC)nc(N3CCNCC3)c21 [Example 49, 4-[7-(2-Butynyl)-2-methoxy-8-oxo-6-(piperazin-1-yl)-7,8-dihydropurin-9-ylmethyl]benzonitrile trifluoroacetic acid salt] | 0.04 | – |
| CC(C)=CCn1c(=O)n(C)c2ncnc(N3CCNCC3)c21 [Example 77, 9-Methyl-7-(3-methyl-2-butenyl)-6-(piperazin-1-yl)-7,9-dihydropurin-8-one trifluoroacetic acid salt] | 8.13 | – |
| CC#CCn1c(=O)n(CC(=O)OC)c2nc(Cl)nc(N3CCNCC3)c21 [Example 40, [7-(2-Butynyl)-2-chloro-8-oxo-6-(piperazin-1-yl)-7,8-dihydropurin-9-yl]acetic acid methyl ester trifluoroacetic acid salt] | 0.0896 | – |
| N#Cc1ccccc1Cn1c(=O)n(Cc2ccccc2)c2c(N3CCNCC3)ncc(Oc3ccccc3C(N)=O)c21 [Example 81, 2-[3-Benzyl-1-(2-cyanobenzyl)-2-oxo-4-piperazin-1-yl-2,3-dihydro-1H-imidazo[4.5-c]pyridin-7-yloxy]-benzamide trifluoroacetic acid salt] | 0.409 | – |
| CC#CCn1c(=O)n(C)c2nc(OCc3ccccc3)nc(N3CCNCC3)c21 [Example 11, 2-Benzyloxy-7-(2-butynyl)-9-methyl-6-(piperazin-1-yl)-7,9-dihydropurin-8-one trifluoroacetic acid salt] | 0.179 | – |
| CC#CCn1c(=O)n(CC2CC2)c2ncnc(N3CCNCC3)c21 [Example 72, 7-(2-Butynyl)-9-cyclopropylmethyl-6-(piperazin-1-yl)-7,9-dihydropurin-8-one trifluoroacetic acid salt] | 0.141 | – |
| CC=CCn1c(=O)n(C)c2nc(Cl)nc(N3CCNCC3)c21 [Example 20, 7-(2-Butenyl)-2-chloro-9-methyl-6-(piperazin-1-yl)-7,9-dihydropurin-8-one trifluoroacetic acid salt] | 0.642 | – |
| CC#CCn1c(=O)n(C)c2nc(NCc3ccccc3)nc(N3CCNCC3)c21 [Example 17, 2-Benzylamino-7-(2-butynyl)-9-methyl-6-(piperazin-1-yl)-7,9-dihydropurin-8-one trifluoroacetic acid salt] | 0.263 | – |
| CC#CCn1c(=O)n(C)c2nc(Cl)nc(N3CCCC(NC)C3)c21 (stereo not shown) [Example 28, 7-(2-Butynyl)-2-chloro-9-methyl-6-(3-methylamino-piperidin-1-yl)-7,9-dihydropurin-8-one trifluoroacetic acid salt] | 89.5 | – |

From US7524847B2, “Fused 1,3-dihydro-imidazole ring compounds” (Eisai R&D Management Co., Ltd., priority 2002, dated 2009)
